What was measured:
Test in all cases: Test D pre-/postemergence plant response
Assay type in all cases: in vivo
[1] = test system: goosegrass (Eleusine indica)
How it was run: (§1)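 Both preemergence and postemergence treatments were made at the same time, with the compound in a non-phytotoxic, surfactant-containing solvent mixture. Plants grew in a greenhouse for 14–21 days before visual evaluation, scored from 0 (no effect) to 100 (complete control).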

[2] = test system: dallisgrass (Paspalum dilatatum)
How it was run: as §1

[3] = test system: morningglory (pitted morningglory, Ipomoea lacunosa)
How it was run: as §1

[4] = test system: signalgrass (broadleaf signalgrass, Brachiaria platyphylla)
How it was run: as §1

[5] = test system: groundsel (common groundsel, Senecio vulgaris); details: Postemergence
How it was run: as §1

kochia (Kochia scoparia) = test system: kochia (Kochia scoparia)
How it was run: as §1

[6] = test system: large crabgrass (Digitaria sanguinalis)
How it was run: as §1

[7] = test system: bermudagrass (Cynodon dactylon)
How it was run: as §1

[8] = test system: nutsedge (purple nutsedge, Cyperus rotundus)
How it was run: as §1

[9] = test system: field bindweed (Convolvulus arvensis)
How it was run: as §1

[10] = test system: quackgrass (Elytrigia repens)
How it was run: as §1

[11] = test system: purslane (common purslane, Portulaca oleracea)
How it was run: as §1

[12] = test system: johnsongrass (Sorghum halepense)
How it was run: as §1

[13] = test system: guineagrass (Panicum maximum)
How it was run: as §1

[14] = test system: chickweed (common chickweed, Stellaria media); details: Postemergence
How it was run: as §1

[15] = test system: sandbur (southern sandbur, Cenchrus echinatus)
How it was run: as §1

[16] = test system: bluegrass (annual bluegrass, Poa annua)
How it was run: as §1

[17] = test system: mallow (common mallow, Malva sylvestris)
How it was run: as §1

[18] = Postemergence, 31 g ai/ha, scale 0 to 100
[19] = Postemergence, 62 g ai/ha, scale 0 to 100 (0 no effect, 100 complete control)
[20] = Postemergence, 125 g ai/ha, scale 0 to 100 (0 no effect, 100 complete control)
[21] = Postemergence, 16 g ai/ha, scale 0 to 100
[22] = Preemergence, 16 g ai/ha, scale 0 to 100, 0 no effect, 100 complete control
[23] = Preemergence, 31 g ai/ha, scale 0 to 100 (0 no effect, 100 complete control)
[24] = Preemergence, 62 g ai/ha, scale 0 to 100
[25] = Preemergence, 125 g ai/ha, scale 0 to 100
[26] = 125 g ai/ha, scale 0 to 100 (0 no effect, 100 complete control)
[27] = Postemergence, 31 g ai/ha, scale 0 to 100 (0 no effect, 100 complete control)

COCCn1c(-c2cccc(C)c2)ncc(C(=O)C2=C(O)C3CCC(C3)C2=O)c1=O (centres unmarked) [Compound 233]
65: Plant response rating, Goosegrass [1, 20] | Plant response rating, Johnsongrass [12, 25] | Plant response rating, Sandbur [15, 18]
5: Plant response rating, Signalgrass [4, 18] | Plant response rating, Crabgrass, Large [6, 23] | Plant response rating, Bermudagrass [7, 22] | Plant response rating, Bermudagrass [7, 23] | Plant response rating, Nutsedge, Purple [8, 25]
70: Plant response rating, Goosegrass [1, 22] | Plant response rating, Morningglory [3, 19] | Plant response rating, Morningglory [3, 20] | Plant response rating, Bermudagrass [7, 27] | Plant response rating, Bermudagrass [7, 19] | Plant response rating, Bermudagrass [7, 20] | Plant response rating, Bermudagrass [7, 21] | Plant response rating, Field Bindweed [9, 20] | Plant response rating, Sandbur [15, 19]
0: Plant response rating, Dallisgrass [2, 21] | Plant response rating, Dallisgrass [2, 22] | Plant response rating, Dallisgrass [2, 23] | Plant response rating, Dallisgrass [2, 24] | Plant response rating, Morningglory [3, 22] | Plant response rating, Signalgrass [4, 21] | Plant response rating, Signalgrass [4, 22] | Plant response rating, Signalgrass [4, 23] | Plant response rating, Kochia (kochia (Kochia scoparia); [22]) | Plant response rating, Kochia (kochia (Kochia scoparia); [23]) | Plant response rating, Crabgrass, Large [6, 22] | Plant response rating, Nutsedge, Purple [8, 18] | Plant response rating, Nutsedge, Purple [8, 19] | Plant response rating, Nutsedge, Purple [8, 20] | Plant response rating, Nutsedge, Purple [8, 21] | Plant response rating, Nutsedge, Purple [8, 22] | Plant response rating, Nutsedge, Purple [8, 23] | Plant response rating, Nutsedge, Purple [8, 24] | Plant response rating, Field Bindweed [9, 22] | Plant response rating, Field Bindweed [9, 23] | Plant response rating, Quackgrass [10, 18] | Plant response rating, Quackgrass [10, 21] | Plant response rating, Quackgrass [10, 22] | Plant response rating, Quackgrass [10, 23] | Plant response rating, Quackgrass [10, 25] | Plant response rating, Purslane [11, 22] | Plant response rating, Purslane [11, 23] | Plant response rating, Johnsongrass [12, 22] | Plant response rating, Johnsongrass [12, 23] | Plant response rating, Guineagrass [13, 22] | Plant response rating, Guineagrass [13, 23] | Plant response rating, Guineagrass [13, 24] | Plant response rating, Guineagrass [13, 25] | Plant response rating, Sandbur [15, 22] | Plant response rating, Sandbur [15, 23] | Plant response rating, Bluegrass [16, 27] | Plant response rating, Bluegrass [16, 19] | Plant response rating, Bluegrass [16, 20] | Plant response rating, Bluegrass [16, 21] | Plant response rating, Bluegrass [16, 22] | Plant response rating, Bluegrass [16, 23] | Plant response rating, Mallow [17, 18] | Plant response rating, Mallow [17, 19] | Plant response rating, Mallow [17, 20] | Plant response rating, Mallow [17, 21] | Plant response rating, Mallow [17, 22] | Plant response rating, Mallow [17, 23] | Plant response rating, Mallow [17, 24]
85: Plant response rating, Bermudagrass [7, 24] | Plant response rating, Bermudagrass [7, 25] | Plant response rating, Field Bindweed [9, 24] | Plant response rating, Field Bindweed [9, 25] | Plant response rating, Sandbur [15, 25]
20: Plant response rating, Kochia (kochia (Kochia scoparia); [18]) | Plant response rating, Kochia (kochia (Kochia scoparia); [24]) | Plant response rating, Crabgrass, Large [6, 21] | Plant response rating, Johnsongrass [12, 21] | Plant response rating, Johnsongrass [12, 24] | Plant response rating, Guineagrass [13, 21]
90: Plant response rating, Groundsel ([5]; 62 g ai/ha, scale 0 to 100 (0 no effect, 100 complete control)) | Plant response rating, Crabgrass, Large [6, 25]
100: Plant response rating, Goosegrass [1, 25] | Plant response rating, Groundsel [5, 26] | Plant response rating, Purslane [11, 24] | Plant response rating, Purslane [11, 25]
40: Plant response rating, Goosegrass [1, 21] | Plant response rating, Crabgrass, Large [6, 18] | Plant response rating, Purslane [11, 20] | Plant response rating, Guineagrass [13, 19] | Plant response rating, Bluegrass [16, 25]
35: Plant response rating, Dallisgrass [2, 20] | Plant response rating, Dallisgrass [2, 25] | Plant response rating, Signalgrass [4, 20] | Plant response rating, Signalgrass [4, 25] | Plant response rating, Kochia (kochia (Kochia scoparia); [20]) | Plant response rating, Johnsongrass [12, 18]
30: Plant response rating, Groundsel ([5]; 16 g ai/ha, scale 0 to 100) | Plant response rating, Kochia (kochia (Kochia scoparia); [19]) | Plant response rating, Purslane [11, 18] | Plant response rating, Purslane [11, 19] | Plant response rating, Purslane [11, 21] | Plant response rating, Guineagrass [13, 18] | Plant response rating, Sandbur [15, 21]
60: Plant response rating, Goosegrass [1, 19] | Plant response rating, Morningglory [3, 18] | Plant response rating, Crabgrass, Large [6, 20] | Plant response rating, Chickweed [14, 26] | Plant response rating, Mallow [17, 25]
80: Plant response rating, Morningglory [3, 23] | Plant response rating, Kochia (kochia (Kochia scoparia); [25])
50: Plant response rating, Goosegrass [1, 18] | Plant response rating, Morningglory [3, 21] | Plant response rating, Groundsel ([5]; 31 g ai/ha, scale 0 to 100) | Plant response rating, Crabgrass, Large [6, 19] | Plant response rating, Field Bindweed [9, 18] | Plant response rating, Field Bindweed [9, 19] | Plant response rating, Johnsongrass [12, 19] | Plant response rating, Johnsongrass [12, 20] | Plant response rating, Guineagrass [13, 20] | Plant response rating, Chickweed ([14]; 31 g ai/ha, scale 0 to 100)
95: Plant response rating, Goosegrass [1, 23] | Plant response rating, Morningglory [3, 24] | Plant response rating, Morningglory [3, 25]
75: Plant response rating, Sandbur [15, 20]
25: Plant response rating, Signalgrass [4, 19] | Plant response rating, Crabgrass, Large [6, 24] | Plant response rating, Quackgrass [10, 20] | Plant response rating, Bluegrass [16, 24]
10: Plant response rating, Dallisgrass [2, 18] | Plant response rating, Dallisgrass [2, 19] | Plant response rating, Kochia (kochia (Kochia scoparia); [21]) | Plant response rating, Field Bindweed [9, 21] | Plant response rating, Quackgrass [10, 19]
98: Plant response rating, Goosegrass [1, 24]
